Results: US11731944B2, “SARS-CoV-2 inhibitors for treating coronavirus infections” (priority 2021, dated 2023)

These compounds were tested against SARS-CoV-2 MPRO (Severe acute respiratory syndrome coronavirus 2 (2019-nCoV) (SARS-CoV-2), UniProt P0DTD1) (assay: SARS-CoV-2 Mpro enzymatic assay (FRET substrate cleavage)). Details: C-His6-tagged SARS-CoV-2 MPRO 25 nM, 30 min pre-incubation at RT, 60 min at 30° C., 10 doses from 25 μM; read-out: M pro IC50.
Format: biochemical

Compound | IC50 [nM]
C[C@](C(=O)NC1CCOC1)(c1cncnc1)N(C(=O)[C@H](F)Cl)c1ccc(OC(F)(F)F)cc1 (single isomer, unassigned) [Example 6a] | < 100
C[C@](C(=O)NC1CCOC1)(c1cncnc1)N(C(=O)[C@H](F)Cl)c1ccc(OC(F)(F)F)cc1 (single isomer, unassigned) [Example 6b] | < 100
C[C@@](C(=O)NC1CCOC1)(c1cncnc1)N(C(=O)[C@H](F)Cl)c1ccc(OC(F)(F)F)cc1 (single isomer, unassigned) [Example 6c] | 1000 to 10000
C[C@@](C(=O)NC1CCOC1)(c1cncnc1)N(C(=O)[C@H](F)Cl)c1ccc(OC(F)(F)F)cc1 (single isomer, unassigned) [Example 6d] | > 10000
CC1(C)C[C@H](NC(=O)[C@@](C)(c2cncnc2)N(C(=O)[C@H](F)Cl)c2ccc(OC(F)(F)F)cc2)CCO1 (single isomer, unassigned) [Example 77a] | < 100
C[C@@](C(=O)NC1CCC(F)(F)CC1)(c1cncnc1)N(C(=O)[C@H](F)Cl)c1ccc(-c2cncs2)cc1 [Example 1b] | 1000 to 10000
C[C@](C(=O)NC1CCC(F)(F)CC1)(c1cncnc1)N(C(=O)[C@H](F)Cl)c1ccc(-c2ccno2)cc1 [Example 2a] | < 100
C[C@@](C(=O)NC1CCC(F)(F)CC1)(c1cncnc1)N(C(=O)[C@H](F)Cl)c1ccc(-c2ccno2)cc1 [Example 2b] | 1000 to 10000
[2H][C@](C(=O)NC1CCC(F)(F)CC1)(c1cncnc1)N(C(=O)[C@H](F)Cl)c1ccc(OC(F)(F)F)cc1 [Example 3a] | < 100
[2H][C@@](C(=O)NC1CCC(F)(F)CC1)(c1cncnc1)N(C(=O)[C@H](F)Cl)c1ccc(OC(F)(F)F)cc1 [Example 3b] | > 10000
C[C@](C(=O)NC1CCC(F)(F)CC1)(c1cncnc1)N(C(=O)[C@H](F)Cl)c1ccc(OC(F)(F)F)cc1 [Example 4a] | < 100
C[C@@](C(=O)NC1CCC(F)(F)CC1)(c1cncnc1)N(C(=O)[C@H](F)Cl)c1ccc(OC(F)(F)F)cc1 [Example 4b] | 1000 to 10000
C[C@](C(=O)NC1CCOCC1)(c1cncnc1)N(C(=O)[C@H](F)Cl)c1ccc(OC(F)(F)F)cc1 [Example 5a] | < 100
C[C@@](C(=O)NC1CCOCC1)(c1cncnc1)N(C(=O)[C@H](F)Cl)c1ccc(OC(F)(F)F)cc1 [Example 5b] | 1000 to 10000
Cn1ccc([C@](C)(C(=O)NC2CCC(F)(F)CC2)N(C(=O)[C@H](F)Cl)c2ccc(OC(F)(F)F)cc2)cc1=O [Example 13a] | > 10000
C[C@](C(=O)NC1CCOCC1)(c1cncc(F)c1)N(C(=O)[C@H](F)Cl)c1ccc(OC(F)(F)F)cc1 [Example 14a] | < 100
C[C@@](C(=O)NC1CCOCC1)(c1cncc(F)c1)N(C(=O)[C@H](F)Cl)c1ccc(OC(F)(F)F)cc1 [Example 14b] | > 10000
C[C@](C(=O)NC1CC(F)(F)C1)(c1cncnc1)N(C(=O)[C@H](F)Cl)c1ccc(OC(F)(F)F)cc1 [Example 18a] | < 100
C[C@@](C(=O)NC1CC(F)(F)C1)(c1cncnc1)N(C(=O)[C@H](F)Cl)c1ccc(OC(F)(F)F)cc1 [Example 18b] | 1000 to 10000
C[C@](C(=O)NC1CCC(F)(F)CC1)(c1cncnc1)N(C(=O)[C@H](F)Cl)c1ccc(S(F)(F)(F)(F)F)cc1 [Example 22a] | < 100
C[C@@](C(=O)NC1CCC(F)(F)CC1)(c1cncnc1)N(C(=O)[C@H](F)Cl)c1ccc(S(F)(F)(F)(F)F)cc1 [Example 22b] | 1000 to 10000
C[C@](C(=O)NC1CCOCC1)(c1cncnc1)N(C(=O)[C@H](F)Cl)c1ccc(S(F)(F)(F)(F)F)cc1 [Example 23a] | 1000 to 10000
C[C@@](C(=O)NC1CCOCC1)(c1cncnc1)N(C(=O)[C@H](F)Cl)c1ccc(S(F)(F)(F)(F)F)cc1 [Example 23b] | < 100

Compound | IC50 [nM]
C[C@](C(=O)NC1CCC(F)(F)CC1)(c1cncnc1)N(C(=O)[C@H](F)Cl)c1ccc(C2(C(F)(F)F)CC2)cc1 [Example 28a] | < 100
C[C@@](C(=O)NC1CCC(F)(F)CC1)(c1cncnc1)N(C(=O)[C@H](F)Cl)c1ccc(C2(C(F)(F)F)CC2)cc1 [Example 28b] | > 10000
C[C@](C(=O)NC1CCOCC1)(c1cncnc1)N(C(=O)[C@H](F)Cl)c1ccc(C2(C(F)(F)F)CC2)cc1 [Example 29a] | 100 to 1000
C[C@@](C(=O)NC1CCOCC1)(c1cncnc1)N(C(=O)[C@H](F)Cl)c1ccc(C2(C(F)(F)F)CC2)cc1 [Example 29b] | > 10000
C[C@@](C(=O)NC1CCOCC1)(c1cncnc1)N(C(=O)[C@H](F)Cl)c1ccc(OC(F)(F)C(F)(F)F)cc1 [Example 32b] | 1000 to 10000
C[C@@](C(=O)NC1CCC(F)(F)CC1)(c1cncnc1)N(C(=O)[C@H](F)Cl)c1ccc(SC(F)(F)F)cc1 [Example 33b] | 100 to 1000
C[C@](C(=O)NC1CCOCC1)(c1cncnc1)N(C(=O)[C@H](F)Cl)c1ccc(SC(F)(F)F)cc1 [Example 34a] | < 100
C[C@@](C(=O)NC1CCOCC1)(c1cncnc1)N(C(=O)[C@H](F)Cl)c1ccc(SC(F)(F)F)cc1 [Example 34b] | > 10000
C[C@](C(=O)NCCc1cccc(F)c1)(c1cncnc1)N(C(=O)[C@H](F)Cl)c1ccc(OC(F)(F)F)cc1 [Example 36a] | < 100
C[C@@](C(=O)NCCc1cccc(F)c1)(c1cncnc1)N(C(=O)[C@H](F)Cl)c1ccc(OC(F)(F)F)cc1 [Example 36b] | > 10000
CC1(C)COCC[C@H]1NC(=O)[C@@](C)(c1cncnc1)N(C(=O)[C@H](F)Cl)c1ccc(OC(F)(F)F)cc1 [Example 76a] | < 100
CC1(C)COCC[C@@H]1NC(=O)[C@@](C)(c1cncnc1)N(C(=O)[C@H](F)Cl)c1ccc(OC(F)(F)F)cc1 [Example 76b] | 100 to 1000
CC1(C)C[C@@H](NC(=O)[C@@](C)(c2cncnc2)N(C(=O)[C@H](F)Cl)c2ccc(OC(F)(F)F)cc2)CCO1 [Example 77b] | < 100
C[C@](C(=O)NC1CCC(F)(F)CC1)(c1cncnc1)N(C(=O)[C@H](F)Cl)c1ccc(OC(F)(F)C(F)(F)F)cc1 [Example 90a] | < 100
C[C@@](C(=O)NC1CCC(F)(F)CC1)(c1cncnc1)N(C(=O)[C@H](F)Cl)c1ccc(OC(F)(F)C(F)(F)F)cc1 [Example 90b] | 100 to 1000
C[C@](C(=O)NC1CCC(F)(F)CC1)(c1cncnc1)N(C(=O)[C@H](F)Cl)c1ccc(OC(F)(F)Cl)cc1 [Example 92a] | < 100
C[C@@](C(=O)NC1CCC(F)(F)CC1)(c1cncnc1)N(C(=O)[C@H](F)Cl)c1ccc(OC(F)(F)Cl)cc1 [Example 92b] | 100 to 1000
C[C@](C(=O)NC1CCC(F)(F)CC1)(c1cncc(F)c1)N(C(=O)[C@H](F)Cl)c1ccc(SC(F)(F)F)cc1 [Example 95a] | < 100
C[C@@](C(=O)NC1CCC(F)(F)CC1)(c1cncc(F)c1)N(C(=O)[C@H](F)Cl)c1ccc(SC(F)(F)F)cc1 [Example 95b] | 1000 to 10000
C[C@](C(=O)NC1CCOCC1)(c1cncc(F)c1)N(C(=O)[C@H](F)Cl)c1ccc(S(F)(F)(F)(F)F)cc1 [Example 97a] | < 100
C[C@@](C(=O)NC1CCOCC1)(c1cncc(F)c1)N(C(=O)[C@H](F)Cl)c1ccc(S(F)(F)(F)(F)F)cc1 [Example 97b] | > 10000
C[C@](C(=O)NC1CCOCC1)(c1cncc(F)c1)N(C(=O)[C@H](F)Cl)c1ccc(OC(F)(F)Cl)cc1 [Example 98a] | < 100

Same assay, conditions: M pro IC50, C-His6-tagged SARS-CoV-2 MPRO 25 nM, 30 min pre-incubation at RT, 60 min at 30° C., 10 doses from 25 μM

Compound | IC50 [nM]
Cn1ccc([C@@](C)(C(=O)NC2CCC(F)(F)CC2)N(C(=O)[C@H](F)Cl)c2ccc(OC(F)(F)F)cc2)cc1=O (single isomer, unassigned) [Example 13b] | > 10000
C[C@](C(=O)NC1CCC(F)(F)CC1)(c1cncnc1)N(C(=O)[C@H](F)Cl)c1ccc(SC(F)(F)F)cc1 (single isomer, unassigned) [Example 33a] | < 100
CC1(C)COCC[C@H]1NC(=O)[C@](C)(c1cncnc1)N(C(=O)[C@H](F)Cl)c1ccc(OC(F)(F)F)cc1 (single isomer, unassigned) [Example 76c] | > 10000
CC1(C)COCC[C@@H]1NC(=O)[C@](C)(c1cncnc1)N(C(=O)[C@H](F)Cl)c1ccc(OC(F)(F)F)cc1 (single isomer, unassigned) [Example 76d] | > 10000
CC1(C)C[C@H](NC(=O)[C@](C)(c2cncnc2)N(C(=O)[C@H](F)Cl)c2ccc(OC(F)(F)F)cc2)CCO1 (single isomer, unassigned) [Example 77c] | 1000 to 10000
CC1(C)C[C@@H](NC(=O)[C@](C)(c2cncnc2)N(C(=O)[C@H](F)Cl)c2ccc(OC(F)(F)F)cc2)CCO1 (single isomer, unassigned) [Example 77d] | > 10000
C[C@@](C(=O)NC1CCC2(CC1)COC2)(c1cncnc1)N(C(=O)[C@H](F)Cl)c1ccc(OC(F)(F)F)cc1 (single isomer, unassigned) [Example 107b] | > 10000
CC(C(=O)N[C@H]1CC[C@H](OC(F)(F)F)CC1)(c1cncnc1)N(C(=O)[C@H](F)Cl)c1ccc(OC(F)(F)F)cc1 (stereo in doubt) [Example 8] | < 100
C[C@](C(=O)NC1CCC(F)(F)CC1)(c1cncc(F)c1)N(C(=O)[C@H](F)Cl)c1ccc(OC(F)(F)F)cc1 [Example 11a] | < 100
C[C@@](C(=O)NC1CCC(F)(F)CC1)(c1cncc(F)c1)N(C(=O)[C@H](F)Cl)c1ccc(OC(F)(F)F)cc1 [Example 11b] | 1000 to 10000
C[C@](C(=O)NC1CCC(F)(F)CC1)(c1cncnc1)N(C(=O)[C@H](F)Cl)c1ccc(OC(F)(F)F)cc1F [Example 26a] | 100 to 1000
C[C@@](C(=O)NC1CCC(F)(F)CC1)(c1cncnc1)N(C(=O)[C@H](F)Cl)c1ccc(OC(F)(F)F)cc1F [Example 26b] | 1000 to 10000
C[C@](C(=O)NC1CCOCC1)(c1cncnc1)N(C(=O)[C@H](F)Cl)c1ccc(OC(F)(F)F)cc1F [Example 27a] | 100 to 1000
C[C@](C(=O)NC1CCOCC1)(c1cncnc1)N(C(=O)[C@H](F)Cl)c1ccc(OC(F)(F)C(F)(F)F)cc1 [Example 32a] | < 100
